Data from patent US20030133918A1, “Methods for ex vivo propagation of somatic stem cells” (priority 2001, published 2003).

What was measured:
Xs-D lines = assay: Albumin induction in adherent culture under conditions of quiescence; assay type: cell-based, rat; settings: added to standard quiescence-induction protocol (confluency, 1% serum)
Excerpt: In vivo, cell differentiation in somatic tissues has two important cell kinetics features. First, it occurs after a fixed number of cell divisions from the stem cell stage; and second, cells undergo a cell kinetics arrest before terminal differentiation occurs (Potten and Morris, 1988). Ideally, we wanted to mimic this process in culture with cells dividing with asymmetric stem cell kinetics. However, there was concern whether in vitro asymmetric divisions would be in appropriate balance with non-dividing cells. So, we decided to augment the growth arrest by growing cells to confluency in either Xs-free or Xs-containing medium and then inducing a total quiescent state by reducing the serum concentration to 1%. Many in vitro cell models have been described that undergo differentiation upon serum reduction.
The most dramatic differentiation result obtained in the adherent culture studies was the induction of albumin expression in Xs-D lines under conditions of quiescence (See example in FIG. 4). […] Three other treatments were added to the standard quiescence-induction protocol to evaluate their effect on albumin induction. These were DMSO to mimic glucocorticoid effects, growth on collagen as a form of extracellular matrix, and glucose-removal as noted above for its differentiation effects on gastrointestinal cell lines. […]

[1] = system: freshly harvested murine bone marrow cells; assay: Bone marrow colony formation in soft agar (fresh bone marrow); assay type: cell-based; settings: fresh bone marrow cells; type I, II, III colonies
Experimental: The following numbers of freshly harvested murine bone marrow cells were plated in soft agar in replicates of 6 in 6-well plates: 1×10^5, 5×10^5, or 1×10^6. After 1-3 weeks, type I, II, and III colonies (see FIG. 2 for examples) were enumerated by phase microscopy.
Because of the difficulties anticipated in cloning Xs-dependent cells from heterogenous long-term bone marrow cultures, we decided to adopt a soft agar culture strategy. It is well known that hematopoietic progenitor cells will form colonies when grown in semi-solid medium (Dexter et al., 1984). […] In many bone marrow cell studies, conditions are selected to induce bone marrow cell differentiation. Methyl-cellulose or soft agar supplemented with lineage-promoting growth factors are widely used experimental systems (Dexter et al., 1984). For ideal SACK, we wished to minimize stimuli for differentiation. Therefore, we used agar developed in routine horse serum-supplemented long-term culture medium, without any additional growth factor source, as the gel medium for our studies. We followed procedures developed for detecting anchorage-independent growth of transformed tumor cells.
Given their associated HSC activity, LT-CFCs are predicted to divide with asymmetric cell kinetics. We evaluated whether Xs would increase the frequency of LT-CFC type I colonies in soft agar. Freshly prepared bone marrow cells were plated in soft agar developed in either control medium or medium containing 1 mM or 3 mM Xs.

[2] = system: p53-inducible model cells; settings: published studies (Sherley, 1991); cited from earlier work

In the case of `C[S+](C)[O-]` [DMSO], the “Effect on degree/induction of albumin expression” value (Xs-D lines) is reported as “no noticeable effect”.
In the case of `O=c1[nH]cnc2nc[nH]c12` [Hx, hypoxanthine], the “Effect on frequency of colony types in soft agar” value [1] is listed as “increased the frequency of type II and III colonies at the expense of type I colonies” and the “Effectiveness as SACK agent compared with Xs” value [2] is listed as “not as effective a SACK agent as Xs”.
